The values below come from patent US10487086.

For the data set the following is noted: from C=CCCC(=O)Nc1cc(NC(=O)OC)ccc1-c1nnc(Cl)cc1C(CC=C)NC(=O)OC(C)(C)C; rcm bond; 12-membered ring; Grubbs II (0.3 eq); DCM; 6.6 mM; 40.0 °C; 1.0 h.

In turn, `COC(=O)Nc1ccc2c(c1)NC(=O)CCC=CCC(NC(=O)OC(C)(C)C)c1cc(Cl)nnc1-2` (stereo not shown) registered a ring closure, isolated yield of 56%.
